Drawing on patent US20220054451A1, “2,3-DIHYDROBENZO[b]THIOPHENE DERIVATIVES AS HYPOXIA INDUCIBLE FACTOR-2(ALPHA) INHIBITORS” (NiKang Therapeutics, Inc., priority 2018, published 2022), this text covers EC50 for 28 molecules.

The target of the assay is T1, HIF-2α (Homo sapiens, UniProt Q99814).
T1 construct: endogenous in cells; host or cells: 786-O cells
T1 sequence (Q99814 whole entry): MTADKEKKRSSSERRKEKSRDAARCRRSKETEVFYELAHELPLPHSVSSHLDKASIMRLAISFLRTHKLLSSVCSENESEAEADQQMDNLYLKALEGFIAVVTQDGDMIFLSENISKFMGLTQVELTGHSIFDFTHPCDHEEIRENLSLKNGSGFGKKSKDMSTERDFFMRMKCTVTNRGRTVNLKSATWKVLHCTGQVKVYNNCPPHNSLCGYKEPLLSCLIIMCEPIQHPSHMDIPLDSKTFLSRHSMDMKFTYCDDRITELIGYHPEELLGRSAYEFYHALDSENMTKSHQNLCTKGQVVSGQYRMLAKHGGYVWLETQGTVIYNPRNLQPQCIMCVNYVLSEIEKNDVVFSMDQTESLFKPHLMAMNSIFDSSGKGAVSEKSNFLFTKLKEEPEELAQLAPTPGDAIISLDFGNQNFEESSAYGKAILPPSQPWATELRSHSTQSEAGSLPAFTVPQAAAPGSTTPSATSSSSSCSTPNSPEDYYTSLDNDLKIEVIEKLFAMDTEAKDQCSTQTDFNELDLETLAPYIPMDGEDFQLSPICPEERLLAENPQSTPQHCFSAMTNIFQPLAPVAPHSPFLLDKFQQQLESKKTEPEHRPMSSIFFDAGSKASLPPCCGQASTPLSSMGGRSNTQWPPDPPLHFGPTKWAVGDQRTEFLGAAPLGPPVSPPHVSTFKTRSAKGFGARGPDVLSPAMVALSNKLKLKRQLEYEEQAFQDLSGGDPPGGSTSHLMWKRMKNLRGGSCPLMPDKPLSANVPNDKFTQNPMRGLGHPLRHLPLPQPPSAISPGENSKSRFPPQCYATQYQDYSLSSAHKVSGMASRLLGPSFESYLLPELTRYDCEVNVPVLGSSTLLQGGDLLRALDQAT
The assay can be described thus: VEGF ELISA assay: VEGF expression in 786-O cells. It is filed as cell-based. The following applies: VEGF concentration in culture medium by ELISA, compounds from 10 uM down to 1 nM, treated twice, medium collected 24 hours after second treatment. How it is done:
The ability of the disclosed compounds to inhibit HIF-2α was measured by determining VEGF expression in 786-O cells. About 7500 786-O cells were seeded into each well of a 96-well, white, clear bottom plate (07-200-566, Fisher Scientific) with 200 ul growth medium. Four hours later, compounds were dispensed into wells by Tecan D300e digital dispenser with starting concentration of 10 uM and ½ log of dilution down to 1 nM as final concentration. Each concentration of treatment was performed in duplicate. About 20 hours later, medium was removed and fresh medium was added, followed by compounds treatment as described above. 24 hours later, cell culture medium was collected to determine VEGF concentration using an ELISA kit (R&D systems, cat #DVE00) following the manufacturer's instruction.
The IC50 is calculated by GraphPad Prism using the dose-response-inhibition (four parameter) equation. The plate with cells was then subjected to CellTiter-Glo luminescence cell viability assay (Promega) to determine the effect of these compounds on cell numbers after the above treatment.
In general terms: In an ELISA, binding on a coated surface is turned into a signal by an enzyme label.
By EC50 is commonly meant the concentration that produces a half-maximal response. Lower therefore signals a more potent agent. `N#Cc1cc(F)cc(Oc2ccc3c(c2C(F)F)[S+]([O-])C(F)(F)C3=O)c1` (stereo not shown) [Compound 1, 3-((7-(difluoromethyl)-2,2-difluoro-1-oxido-3-oxo-2,3-dihydrobenzo[b]thiophen-6-yl)oxy)-5-fluorobenzonitrile] had an EC50 of 720 nM.

Molecule `[O-][S+]1c2c(ccc(Oc3cncc(Cl)c3)c2C(F)F)C(F)(F)C1(F)F` (stereo not shown) [Compound 18, 6-((5-chloropyridin-3-yl)oxy)-7-(difluoromethyl)-2,2,3,3-tetrafluoro-2,3-dihydrobenzo-[b]thiophene 1-oxide] displayed an EC50 of 1800 nM. This EC50 lies about 2.5-fold higher than the previous one.

As for “a mixture of 3-fluoro-5-(((1S,3R)- 2,2,3-trifluoro-7-(methylsulfonyl)- 1-oxido-2,3- dihydrobenzo[b]thiophen-4-yl)oxy) benzonitrile and 3-fluoro-5- (((1R,3S)-2,2,3-trifluoro-7- (methylsulfonyl)-1-oxido-2,3- dihydrobenzo[b]thiophen-4-yl) oxy)benzonitrile [Compound 24a]”, the EC50 was found to be 8900 nM.

`[O-][S@@+]1c2c(ccc(Oc3cc(F)cc(F)c3)c2C(F)F)[C@H](F)C1(F)F` (single isomer, unassigned) [Compound 9a] came in with an EC50 of 970 nM.

In the case of `[O-][S@+]1c2c(ccc(Oc3cc(F)cc(Cl)c3)c2C(F)F)[C@H](F)C1(F)F` (single isomer, unassigned) [Compound 12c], the EC50 was 45 nM.

As to `N#Cc1cc(F)cc(Oc2ccc3c(c2C(F)F)[S+]([O-])C(F)(F)C3(F)F)c1` (single isomer, unassigned) [Compound 13a], the midpoint of the response, the EC50, lay at 37 nM.

Molecule `N#Cc1cc(F)cc(Oc2ccc3c(c2C(F)F)[S+]([O-])C(F)(F)C3(F)F)c1` (single isomer, unassigned) [Compound 13b] returned an EC50 of 190 nM.

“a mixture of 3-fluoro-5-(((1R,3R)- 2,2,3-trifluoro-7-(methylsulfonyl)- 1-oxido-2,3- dihydrobenzo[b]thiophen-4-yl)oxy) benzonitrile and 3-fluoro-5- (((1S,3S)-2,2,3-trifluoro-7- (methylsulfonyl)-1-oxido-2,3- dihydrobenzo[b]thiophen-4-yl) oxy)benzonitrile [Compound 24b]” displayed a 50% effective concentration (EC50) of 18500 nM. This EC50 is about 97-fold higher than that of the molecule before.

Molecule `[O-][S+]1c2c(ccc(OC3CC(F)(F)C3)c2C(F)F)C(F)(F)C1(F)F` (stereo not shown) [Compound 19, 6-(3,3-difluorocyclobutoxy)-7-(difluoromethyl)-2,2,3,3-tetrafluoro-2,3-dihydrobenzo[b]-thiophene 1-oxide] yielded an EC50 of 2680 nM. Against the preceding molecule, the EC50 is about 6.9-fold lower.

Molecule `[O-][S@@+]1c2c(ccc(Oc3cc(F)cc(Cl)c3)c2C(F)F)[C@H](F)C1(F)F` (single isomer, unassigned) [Compound 12a] gave an EC50 of 860 nM.

With `N#Cc1cc(F)cc(Oc2ccc3c(c2Cl)[S+]([O-])C(F)(F)C3(F)F)c1` (stereo not shown) [Compound 28, 3-((7-chloro-2,2,3,3-tetrafluoro-1-oxido-2,3-dihydrobenzo[b]thiophen-6-yl)oxy)-5-fluorobenzonitrile], the EC50 came out at 240 nM.

Take `N#Cc1cc(F)cc(Oc2ccc3c(c2Br)[S+]([O-])C(F)(F)C3(F)F)c1` (stereo not shown) [Compound 30, 3-((7-bromo-2,2,3,3-tetrafluoro-1-oxido-2,3-dihydrobenzo[b]thiophen-6-yl)oxy)-5-fluorobenzonitrile]: a half-maximal effect (EC50) was put at 390 nM.

Regarding `N#Cc1cc(F)cc(Oc2ccc3c(c2Cl)S(=O)(=O)C(F)(F)C3(F)F)c1` [Compound 29, 3-((7-chloro-2,2,3,3-tetrafluoro-1,1-dioxido-2,3-dihydrobenzo [b]thiophen-6-yl)oxy)-5-fluorobenzonitrile], a half-maximal response (EC50) required 190 nM.

`[O-][S+]1c2c(ccc(Oc3cc(F)cc(F)c3)c2C(F)F)C(F)(F)C1(F)F` (stereo not shown) [Compound 15, 7-(difluoromethyl)-6-(3,5-difluorophenoxy)-2,2,3,3-tetrafluoro-2,3-dihydrobenzo[b]-thiophene 1-oxide] came in with an EC50 of 130 nM. This EC50 and that of the molecule before are within 1.5-fold of each other.

The molecule `[O-][S@@+]1c2c(ccc(Oc3cc(F)cc(F)c3)c2C(F)F)[C@@H](F)C1(F)F` (single isomer, unassigned) [Compound 9d] showed an EC50 of 3270 nM.

With `N#Cc1cc(F)cc(Oc2ccc3c(c2C(F)F)S(=O)(=O)C(F)(F)C3(F)F)c1` [Compound 20, 3-((7-(difluoromethyl)-2,2,3,3-tetrafluoro-1,1-dioxido-2,3-dihydrobenzo[b]thiophen-6-yl)oxy)-5-fluorobenzonitrile], it took 27 nM to reach a half-maximal effect (EC50).

For `[O-][S@@+]1c2c(ccc(Oc3cc(F)cc(Cl)c3)c2C(F)F)[C@@H](F)C1(F)F` (single isomer, unassigned) [Compound 12d], the EC50 was found to be 1600 nM.

In the case of `N#Cc1cc(F)cc(Oc2ccc3c(c2C#N)[S+]([O-])C(F)(F)C3(F)F)c1` (stereo not shown) [Compound 31, 6-(3-cyano-5-fluorophenoxy)-2,2,3,3-tetrafluoro-2,3-dihydrobenzo [b]thiophene-7-carbonitrile 1-oxide], the EC50 is 190 nM.

`[O-][S+]1c2c(ccc(Oc3cncc(F)c3)c2C(F)F)C(F)(F)C1(F)F` (stereo not shown) [Compound 17, 7-(difluoromethyl)-2,2,3,3-tetrafluoro-6-((5-fluoropyridin-3-yl)oxy)-2,3-dihydrobenzo-[b]thiophene 1-oxide] gave an EC50 of 2130 nM.

Molecule `[O-][S@+]1c2c(ccc(Oc3cc(F)cc(F)c3)c2C(F)F)[C@@H](F)C1(F)F` (single isomer, unassigned) [Compound 9b] yielded an EC50 of 1200 nM.

`N#Cc1cncc(Oc2ccc3c(c2C(F)F)[S+]([O-])C(F)(F)C3(F)F)c1` (stereo not shown) [Compound 16, 5-((7-(difluoromethyl)-2,2,3,3-tetrafluoro-1-oxido-2,3-dihydrobenzo[b]thiophen-6-yl)oxy)nicotinonitrile] showed a 50% effective concentration (EC50) of 2390 nM.

Consider “a mixture of 3-(((1S,3S)-7- (difluoromethyl)-2,2,3-trifluoro-1- oxido-2,3-dihydrobenzo- [b]thiophen-6-yl)oxy)-5- fluorobenzonitrile and 3-(((1R,3R)- 7-(difluoromethyl)-2,2,3- trifluoro-1-oxido-2,3-dihydrobenzo [b]thiophen-6-yl)oxy)-5- fluorobenzonitrile [Compound 3b]”, for which the EC50 is 160 nM.

“a mixture of 3-(((1S,3R)-7- (difluoromethyl)-2,2,3-trifluoro-1- oxido-2,3-dihydrobenzo- [b]thiophen-6-yl)oxy)-5- fluorobenzonitrile and 3-(((1R,3S)- 7-(difluoromethyl)-2,2,3- trifluoro-1-oxido-2,3-dihydrobenzo [b]thiophen-6-yl)oxy)-5- fluorobenzonitrile [Compound 3a]” showed an EC50 of 3500 nM.

Consider “a mixture of 3-fluoro-5-(((1R,3R)- 2,2,3-trifluoro-1-oxido-7- (trifluoromethyl)-2,3- dihydrobenzo[b]thiophen-4-yl)oxy) benzonitrile and 3-fluoro-5- (((1S,3S)-2,2,3-trifluoro-1- oxido-7-(trifluoromethyl)-2,3- dihydrobenzo[b]thiophen-4-yl) oxy)benzonitrile [Compound 27a]”, for which a half-maximal response (EC50) required 9400 nM. Compared with the last molecule, the EC50 is about 2.7-fold higher.

The molecule `[O-][S@+]1c2c(ccc(Oc3cc(F)cc(F)c3)c2C(F)F)[C@H](F)C1(F)F` (single isomer, unassigned) [Compound 9c] registered an EC50 of 74 nM.

`[O-][S@+]1c2c(ccc(Oc3cc(F)cc(Cl)c3)c2C(F)F)[C@@H](F)C1(F)F` (single isomer, unassigned) [Compound 12b] yielded an EC50 of 880 nM.

On to `N#Cc1cc(Cl)cc(Oc2ccc3c(c2C(F)F)[S@@+]([O-])C(F)(F)[C@H]3F)c1` (single isomer, unassigned) [Compound 6d], for which the EC50 amounted to 280 nM.

“a mixture of 3-fluoro-5-(((1S,3R)- 2,2,3-trifluoro-1-oxido-7- (trifluoromethyl)-2,3- dihydrobenzo[b]thiophen-4-yl)oxy) benzonitrile and 3-fluoro-5- (((1R,3S)-2,2,3-trifluoro-1- oxido-7-(trifluoromethyl)-2,3- dihydrobenzo[b]thiophen-4-yl) oxy)benzonitrile [Compound 27b]” had an EC50 of 670 nM.
